Bridge positions count the residues as written; N and C are the ends. Peptide text beside a SMILES is read from it.
Target: adult mouse muscle nAChR subtype (α1β1εδ) (Mus musculus, UniProt P02716+P04756+P20782)
Test: cell-based

Sequence of adult mouse muscle nAChR subtype (α1β1εδ) (P02716 whole entry, looked up): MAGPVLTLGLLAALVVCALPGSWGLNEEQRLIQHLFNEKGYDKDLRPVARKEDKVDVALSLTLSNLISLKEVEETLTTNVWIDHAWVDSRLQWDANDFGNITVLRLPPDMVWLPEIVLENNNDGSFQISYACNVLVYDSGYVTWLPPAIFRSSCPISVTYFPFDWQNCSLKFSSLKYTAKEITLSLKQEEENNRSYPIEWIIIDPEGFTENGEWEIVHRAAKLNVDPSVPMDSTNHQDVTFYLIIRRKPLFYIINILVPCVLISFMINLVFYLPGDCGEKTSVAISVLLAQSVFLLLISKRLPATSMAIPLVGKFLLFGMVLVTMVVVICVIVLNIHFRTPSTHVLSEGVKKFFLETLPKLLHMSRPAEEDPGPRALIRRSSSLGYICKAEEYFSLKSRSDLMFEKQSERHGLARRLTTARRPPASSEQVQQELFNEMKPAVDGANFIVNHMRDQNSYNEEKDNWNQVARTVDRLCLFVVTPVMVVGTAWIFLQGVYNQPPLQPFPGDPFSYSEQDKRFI
Sequence of adult mouse muscle nAChR subtype (α1β1εδ) (P04756 whole entry, looked up): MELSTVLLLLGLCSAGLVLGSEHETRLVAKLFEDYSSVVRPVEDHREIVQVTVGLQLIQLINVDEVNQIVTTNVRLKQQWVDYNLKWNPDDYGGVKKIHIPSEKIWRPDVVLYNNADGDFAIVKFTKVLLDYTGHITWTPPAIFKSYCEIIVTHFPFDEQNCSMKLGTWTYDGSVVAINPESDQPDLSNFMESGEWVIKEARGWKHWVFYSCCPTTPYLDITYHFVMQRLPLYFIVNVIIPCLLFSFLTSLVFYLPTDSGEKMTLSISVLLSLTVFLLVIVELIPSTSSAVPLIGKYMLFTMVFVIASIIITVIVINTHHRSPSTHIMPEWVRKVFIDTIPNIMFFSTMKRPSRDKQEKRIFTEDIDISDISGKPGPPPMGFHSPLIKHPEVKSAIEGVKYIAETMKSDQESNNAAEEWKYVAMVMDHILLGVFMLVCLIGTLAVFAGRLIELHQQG
Sequence of adult mouse muscle nAChR subtype (α1β1εδ) (P20782 whole entry, looked up): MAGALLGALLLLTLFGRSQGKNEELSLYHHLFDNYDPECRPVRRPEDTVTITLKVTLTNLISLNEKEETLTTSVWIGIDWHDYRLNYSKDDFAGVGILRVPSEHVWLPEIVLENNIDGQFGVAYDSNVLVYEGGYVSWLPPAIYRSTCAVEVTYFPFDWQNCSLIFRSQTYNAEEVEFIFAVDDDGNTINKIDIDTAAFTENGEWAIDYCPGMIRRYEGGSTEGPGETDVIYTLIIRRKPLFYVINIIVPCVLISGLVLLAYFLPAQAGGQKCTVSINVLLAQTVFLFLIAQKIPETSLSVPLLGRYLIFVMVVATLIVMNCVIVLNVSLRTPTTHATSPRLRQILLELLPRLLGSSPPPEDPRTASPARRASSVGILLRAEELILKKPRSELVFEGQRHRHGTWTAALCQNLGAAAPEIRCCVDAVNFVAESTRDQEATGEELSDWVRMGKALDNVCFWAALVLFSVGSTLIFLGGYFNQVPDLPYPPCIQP

## CC[C@H](C)[C@@H]1NC(=O)CNC(=O)[C@H](C)NC(=O)[C@H](CCCNC(=N)N)NC(=O)[C@@H]2CSSC[C@@H](C(=O)N[C@@H](CCCNC(=N)N)C(N)=O)NC(=O)[C@H](Cc3c[nH]cn3)NC(=O)[C@H](CSSC[C@H](NC(=O)[C@@H](NC(=O)[C@H](CCCNC(=N)N)NC(=O)[C@@H]3CCCN3C(=O)[C@H](CCCNC(=N)N)NC(=O)[C@@H]3CCCN3C(=O)[C@@H](N)Cc3ccccc3)[C@@H](C)CC)C(=O)N[C@@H](CC(N)=O)C(=O)N[C@@H](CC(C)C)C(=O)N[C@@H](C)C(=O)N2)NC(=O)[C@H](Cc2ccccc2)NC(=O)[C@@H]2CCCN2C(=O)[C@H](Cc2ccc(O)cc2)NC(=O)[C@H](CCCCN)NC(=O)[C@H](Cc2c[nH]cn2)NC(=O)CNC1=O [pl14a] (H-FPRPRICNLACRAGIGHKYPFCHCR-NH2; disulfide 7-22, 11-24)
  IC50: 0.507 µM

From patent US9062118B2 (priority 2006, dated 2015)
